Measurements reported in the NIST ThermoML archive (doi:10.1021/je100864e).
Numbers after ± are expanded uncertainties.

Assay: mn = molality of the nth substance listed, in mol/kg
Conditions: 101 kPa, Liquid; for speed of sound: Pulse-echo method

O=C([O-])CC(O)(CC(=O)O)C(=O)O.[Na+] [sodium dihydrogen citrate] + O
Conditions | mass density, 288.15 K [kg/m3] | mass density, 293.15 K [kg/m3] | mass density, 298.15 K [kg/m3] | mass density, 303.15 K [kg/m3] | mass density, 308.15 K [kg/m3] | speed of sound, 288.15 K [m/s] | speed of sound, 293.15 K [m/s] | speed of sound, 298.15 K [m/s] | speed of sound, 303.15 K [m/s] | speed of sound, 308.15 K [m/s]
m1 = 0.0093 | 1000.17 ± 0.22 | 999.26 ± 0.24 | 998.086 ± 0.24 | 996.675 ± 0.24 | 995.048 ± 0.23 | 1467.7 ± 0.8 | 1483.7 ± 0.8 | 1497.9 ± 0.79 | 1510.2 ± 0.78 | 1520.8 ± 0.78
m1 = 0.0117 | 1000.44 ± 0.22 | 999.519 ± 0.21 | 998.341 ± 0.22 | 996.93 ± 0.22 | 995.3 ± 0.23 | 1467.9 ± 0.8 | 1483.9 ± 0.8 | 1498.1 ± 0.79 | 1510.4 ± 0.78 | 1521 ± 0.78
m1 = 0.0125 | 1000.53 ± 0.22 | 999.616 ± 0.23 | 998.436 ± 0.23 | 997.022 ± 0.23 | 995.39 ± 0.23 | 1468 ± 0.8 | 1484 ± 0.8 | 1498.2 ± 0.79 | 1510.5 ± 0.78 | 1521.1 ± 0.78
m1 = 0.0138 | 1000.68 ± 0.22 | 999.756 ± 0.22 | 998.576 ± 0.23 | 997.161 ± 0.23 | 995.527 ± 0.23 | 1468.1 ± 0.8 | 1484.1 ± 0.8 | 1498.3 ± 0.79 | 1510.6 ± 0.78 | 1521.2 ± 0.78
m1 = 0.0155 | 1000.87 ± 0.22 | 999.956 ± 0.21 | 998.772 ± 0.22 | 997.353 ± 0.22 | 995.72 ± 0.23 | 1468.3 ± 0.8 | 1484.3 ± 0.8 | 1498.5 ± 0.79 | 1510.8 ± 0.78 | 1521.4 ± 0.78
m1 = 0.0163 | 1000.97 ± 0.22 | 1000.04 ± 0.23 | 998.856 ± 0.23 | 997.436 ± 0.23 | 995.802 ± 0.23 | 1468.4 ± 0.8 | 1484.4 ± 0.8 | 1498.5 ± 0.79 | 1510.8 ± 0.78 | 1521.4 ± 0.78
m1 = 0.0187 | 1001.24 ± 0.22 | 1000.31 ± 0.22 | 999.125 ± 0.22 | 997.702 ± 0.22 | 996.063 ± 0.23 | 1468.7 ± 0.8 | 1484.7 ± 0.8 | 1498.8 ± 0.79 | 1511 ± 0.78 | 1521.6 ± 0.78
m1 = 0.0202 | 1001.42 ± 0.22 | 1000.49 ± 0.21 | 999.296 ± 0.21 | 997.872 ± 0.22 | 996.232 ± 0.23 | 1468.9 ± 0.8 | 1484.8 ± 0.8 | 1498.9 ± 0.79 | 1511.2 ± 0.78 | 1521.8 ± 0.78
m1 = 0.0209 | 1001.49 ± 0.22 | 1000.56 ± 0.19 | 999.364 ± 0.19 | 997.94 ± 0.2 | 996.299 ± 0.22 | 1468.9 ± 0.8 | 1484.9 ± 0.8 | 1499 ± 0.79 | 1511.3 ± 0.78 | 1521.8 ± 0.78
m1 = 0.024 | 1001.85 ± 0.23 | 1000.91 ± 0.22 | 999.72 ± 0.22 | 998.29 ± 0.22 | 996.648 ± 0.23 | 1469.3 ± 0.8 | 1485.2 ± 0.8 | 1499.3 ± 0.79 | 1511.5 ± 0.78 | 1522.1 ± 0.78
m1 = 0.0279 | 1002.29 ± 0.23 | 1001.35 ± 0.22 | 1000.15 ± 0.22 | 998.715 ± 0.22 | 997.067 ± 0.23 | 1469.8 ± 0.8 | 1485.6 ± 0.8 | 1499.7 ± 0.79 | 1511.9 ± 0.78 | 1522.4 ± 0.78
m1 = 0.0327 | 1002.84 ± 0.23 | 1001.89 ± 0.22 | 1000.68 ± 0.22 | 999.246 ± 0.22 | 997.594 ± 0.22 | 1470.2 ± 0.8 | 1486 ± 0.8 | 1500.1 ± 0.79 | 1512.3 ± 0.78 | 1522.8 ± 0.78
m1 = 0.0376 | 1003.39 ± 0.23 | 1002.44 ± 0.22 | 1001.22 ± 0.22 | 999.776 ± 0.22 | 998.119 ± 0.22 | 1470.8 ± 0.8 | 1486.6 ± 0.8 | 1500.6 ± 0.79 | 1512.7 ± 0.78 | 1523.2 ± 0.78
m1 = 0.0409 | 1003.78 ± 0.23 | 1002.82 ± 0.23 | 1001.6 ± 0.23 | 1000.15 ± 0.22 | 998.486 ± 0.22 | 1471.1 ± 0.8 | 1486.9 ± 0.8 | 1500.9 ± 0.79 | 1513.1 ± 0.78 | 1523.5 ± 0.78
m1 = 0.047 | 1004.47 ± 0.23 | 1003.49 ± 0.23 | 1002.27 ± 0.23 | 1000.81 ± 0.22 | 999.141 ± 0.22 | 1471.8 ± 0.8 | 1487.6 ± 0.8 | 1501.5 ± 0.79 | 1513.6 ± 0.78 | 1524 ± 0.78
m1 = 0.0681 | 1006.85 ± 0.23 | 1005.84 ± 0.23 | 1004.59 ± 0.23 | 1003.11 ± 0.23 | 1001.41 ± 0.22 | 1474 ± 0.8 | 1489.7 ± 0.8 | 1503.5 ± 0.79 | 1515.5 ± 0.78 | 1525.8 ± 0.78
m1 = 0.0937 | 1009.71 ± 0.24 | 1008.67 ± 0.24 | 1007.38 ± 0.23 | 1005.86 ± 0.23 | 1004.15 ± 0.23 | 1476.8 ± 0.8 | 1492.3 ± 0.8 | 1505.9 ± 0.79 | 1517.8 ± 0.78 | 1527.9 ± 0.78
m1 = 0.1194 | 1012.55 ± 0.24 | 1011.47 ± 0.24 | 1010.14 ± 0.24 | 1008.6 ± 0.24 | 1006.86 ± 0.23 | 1479.5 ± 0.8 | 1494.8 ± 0.8 | 1508.3 ± 0.79 | 1520 ± 0.78 | 1530.1 ± 0.78
m1 = 0.144 | 1015.25 ± 0.25 | 1014.13 ± 0.25 | 1012.77 ± 0.24 | 1011.2 ± 0.24 | 1009.44 ± 0.24 | 1482 ± 0.8 | 1497.2 ± 0.8 | 1510.5 ± 0.79 | 1522.1 ± 0.79 | 1532 ± 0.78
m1 = 0.1678 | 1017.83 ± 0.26 | 1016.68 ± 0.25 | 1015.29 ± 0.25 | 1013.7 ± 0.25 | 1011.91 ± 0.24 | 1484.6 ± 0.8 | 1499.6 ± 0.8 | 1512.7 ± 0.79 | 1524.2 ± 0.79 | 1534 ± 0.79
m1 = 0.1911 | 1020.35 ± 0.26 | 1019.17 ± 0.26 | 1017.76 ± 0.26 | 1016.13 ± 0.25 | 1014.32 ± 0.25 | 1487 ± 0.8 | 1501.8 ± 0.8 | 1514.9 ± 0.79 | 1526.2 ± 0.79 | 1535.8 ± 0.79
m1 = 0.2165 | 1023.07 ± 0.27 | 1021.86 ± 0.27 | 1020.42 ± 0.26 | 1018.77 ± 0.26 | 1016.93 ± 0.25 | 1489.5 ± 0.8 | 1504.1 ± 0.8 | 1517 ± 0.79 | 1528.2 ± 0.79 | 1537.8 ± 0.8
m1 = 0.2412 | 1025.7 ± 0.27 | 1024.45 ± 0.27 | 1022.98 ± 0.27 | 1021.31 ± 0.26 | 1019.45 ± 0.26 | 1492 ± 0.8 | 1506.5 ± 0.8 | 1519.3 ± 0.79 | 1530.3 ± 0.79 | 1539.8 ± 0.79
m1 = 0.2934 | 1031.2 ± 0.28 | 1029.89 ± 0.28 | 1028.36 ± 0.28 | 1026.63 ± 0.28 | 1024.72 ± 0.27 | 1497.3 ± 0.8 | 1511.5 ± 0.8 | 1524 ± 0.8 | 1534.7 ± 0.79 | 1543.9 ± 0.79
m1 = 0.3205 | 1034.04 ± 0.29 | 1032.69 ± 0.29 | 1031.13 ± 0.28 | 1029.38 ± 0.28 | 1027.44 ± 0.28 | 1500 ± 0.8 | 1514 ± 0.8 | 1526.3 ± 0.8 | 1537 ± 0.79 | 1546 ± 0.79
m1 = 0.3395 | 1036.01 ± 0.3 | 1034.64 ± 0.29 | 1033.06 ± 0.29 | 1031.28 ± 0.28 | 1029.33 ± 0.28 | 1501.8 ± 0.8 | 1515.8 ± 0.8 | 1528 ± 0.8 | 1538.5 ± 0.79 | 1547.5 ± 0.79
m1 = 0.3728 | 1039.43 ± 0.3 | 1038.03 ± 0.3 | 1036.41 ± 0.3 | 1034.6 ± 0.29 | 1032.62 ± 0.29 | 1505.1 ± 0.81 | 1518.8 ± 0.8 | 1530.9 ± 0.8 | 1541.2 ± 0.79 | 1550 ± 0.79
m1 = 0.3936 | 1041.57 ± 0.31 | 1040.14 ± 0.3 | 1038.5 ± 0.3 | 1036.67 ± 0.3 | 1034.67 ± 0.29 | 1507.1 ± 0.81 | 1520.7 ± 0.81 | 1532.7 ± 0.8 | 1542.9 ± 0.79 | 1551.6 ± 0.79
